Ki and IC50 data for ten compounds are collected here from patent US12247032B2, “Substituted pyrazolo[1,5-a]pyrimidines as inhibitors of JAK kinases” (Genentech, Inc., priority 2019, dated 2025).

SMILES strings stand for the structures. Like-named read-outs stand apart in the source and are kept apart here.

The target of assay [1] is T1, recombinant human JAK1 kinase domain protein (Residues 854-1154) (Homo sapiens, UniProt P23458).
T1 construct: human JAK1 kinase domain protein (Residues 854-1154); purchased Proteros Biostructures GmbH (Martinsried, Germany); host or cells: insect cells
Briefly: JAK1 biochemical assay (microfluidic mobility shift, peptide phosphorylation). The settings on record: 25 μM ATP, 1 nM total JAK1; Ki calculated from Ki app (tight-binding, competitive); read-out: Biochem JAK1 Ki. The protocol:
(§1) The in vitro biochemical assays quantify JAK-catalyzed phosphorylation of a synthetic peptide, as detected using a LabChip® EZ Reader II microfluidic mobility shift instrument (PerkinElmer; Waltham, MA). The substrate peptide Y-1B has the sequence 5-FAM-VALVDGYFRLTT-NH2. Y-1B is fluorescently labeled on the N-terminus with 5-FAM (5-carboxyfluorescein) and contains a single tyrosine residue (Y) that can be phosphorylated by JAK activity. The substrate peptide stock is prepared in DMSO at 5 mM. Purified recombinant human JAK1 kinase domain protein (Residues 854-1154) was expressed in insect cells and procured from Proteros Biostructures GmbH (Martinsried, Germany). Recombinant human JAK2 kinase domain protein (Residues 812-1132) was expressed in insect cells and purified at Genentech, Inc. (South San Francisco, CA).
(§2) The kinase reaction mixtures contained 100 mM 4-(2-hydroxyethyl)-1-piperazineethanesulfonic acid (HEPES) buffer (pH 7.2), 10 mM magnesium chloride, 0.015% Brij® 35, 4 mM dithiothreitol, 1.5 μM Y-1B peptide substrate, 25 μM adenosine triphosphate (ATP), 1 nM total JAK1 or 0.2 nM total JAK2, and up to 1000 nM test compound in a final concentration of 2% (volume to volume [v/v]) DMSO. In each titration experiment, test compound was tested in duplicate at each of the twelve concentrations. Blank reactions contained ATP, peptide, and DMSO, but no JAK or test compound, whereas uninhibited control reactions contained ATP, peptide, JAK, and DMSO, but no test compound.
(§3) Peptide plus ATP mixture (24 μL) was added to 1 μL of test compound in DMSO (or DMSO alone). The reactions were initiated by adding 25 μL of JAK enzyme to the inhibitor/peptide/ATP mixture before thoroughly mixing the resultant solution. Reactions were incubated at room temperature (22° C.-23° C.) in a final volume of 50 μL per well in 384-well plates. After a 30-minute incubation, the reactions were stopped by adding 25 μL of 150 mM ethylenediaminetetraacetic acid in 100 mM HEPES buffer (pH 7.2) containing 0.015% Brij 35 to each well.
(§4) In each reaction, the residual Y-1B substrate and the phospho-peptide product generated were separated using the EZ Reader 1 instrument. Electrophoretic separation of molecules of product from molecules of substrate was achieved using downstream and upstream voltages of −500 and −2600 V, respectively, at an operating pressure of −1.3 psi. The 5-FAM group present on both the substrate and product peptides was excited at 488 nm, the fluorescence was detected at 530 nm, and the peak heights were reported.
(§5) The extent (or percent) of conversion of substrate to product was calculated from the corresponding peak heights in the electropherogram using HTS Well Analyzer software, Version 5.2 (PerkinElmer), and the following equation (Equation 1): % conversion=[P[…](S+P)]×100 Equation 1 where S and P represent the peak heights of the substrate and product, respectively. After any baseline signal from blank wells containing no JAK was subtracted from the signal of all test wells, the % conversion data were converted to fractional activity as shown in Equation 2, where νi and νo are the % conversion in the presence and absence of test compound, respectively. The % conversion observed in the uninhibited control reactions containing JAK and DMSO vehicle, but no test compound, was defined to have fractional activity=1 (with no inhibitor present, νi=νo), whereas blank wells with no JAK were defined as having fractional activity=0. Fractional activity was plotted against test compound concentration and the data were fitted using XLfit software (IDBS; Guildford, United Kingdom) to a tight-binding apparent inhibition constant (Ki^app) quadratic equation (see Equation 2) (Williams J W, Morrison J F. The kinetics of reversible tight-binding inhibition. Methods Enymol 1979; 63:437-67), which was used to calculate fractional activity and Ki^app […]

The target of assay [2] is T2, Recombinant human JAK2 kinase domain protein (Residues 812-1132) (Homo sapiens, UniProt O60674).
T2 construct: human JAK2 kinase domain protein (Residues 812-1132); made in house; host or cells: insect cells
In words: JAK2 biochemical assay (microfluidic mobility shift, peptide phosphorylation). The conditions noted are these: 25 μM ATP, 0.2 nM total JAK2; Ki calculated from Ki app (tight-binding, competitive); read-out: Biochem JAK2 Ki. The protocol:
as §1, §2, §3, §4, §5

For assay [3], the system named is JAK1 (IL-13-stimulated STAT6 phosphorylation in BEAS-2B cells). In words: P-STAT6 BEAS-2B+IL-13 cell assay. It counts as cell-based, human. The conditions noted are these: 1 hour compound, IL-13 15 minutes, IC50 by four-parameter fit, read-out: Cellular JAK1 PSTAT6 BEAS2B + IL13. On the procedure:
In order to study the effect of JAK1 inhibitors in a cell line that is relevant to the cell biology of human asthma, an IL-13-stimulated STAT6 phosphorylation assay in the human lung bronchial epithelial BEAS-2B cell line was developed.
BEAS-2B cells (ATCC® CRL-9609™) were grown in Bronchial Epithelial Growth Medium (BEGM) (Lonza Catalog No. CC-3170; Walkersville, MD; or PromoCell Catalog No. C-21060; Heidelberg, Germany). Test compound stock solutions (0.5 mM in DMSO) were serially diluted 1:2 in DMSO to generate a 10-point concentration curve (at 500× test concentration), which was further diluted by a 50-fold dilution step in BEGM to generate a 10× concentration curve (in 2% DMSO). Cells were plated at 100,000 cells/well in 200 μL of BEGM in 96-well plates and incubated for 48 hours at 37° C. in a humidified incubator. Medium was aspirated from the cells and replaced with 70 μL of fresh BEGM. Diluted test compound (10 μL; or 2% DMSO in assay medium) was added to the cells, and the plates were incubated for 1 hour at 37° C. in a humidified incubator. Twenty μL of 250 ng/mL human recombinant IL-13 (Bio Techne Catalog No. 213-ILB) was then added to the cells and incubated for 15 minutes at 37° C. Medium was aspirated from the cells and 60 μL of ice-cold 1×cell lysis buffer (Cell Signaling Technologies; Catalog No. 9803S) containing 1 mM PMSF was added to the cells. Assay plates were incubated at −80° C. for at least 1 hour. P-STAT6 was measured by coating GAR plates (MSD; Catalog No. L45RA-1) with rabbit anti-human total STAT6 antibody (Cell Signaling Technologies; Catalog No. 9362S), incubating the cell lysates in the coated plates overnight at 4° C., and then detecting with mouse anti-phospho-STAT6 (Tyr641) Clone 16E12 antibody (Millipore; Catalog No. 05-590, custom labeled by MSD with SULFO-tag) using standard MSD plate processing, washing, and detection protocols. Plates were read on the MESO SECTOR S600.
Data analysis was performed by subtracting negative control values from all wells and determining percent of control using the positive control values; the IC50 was determined with a four-parameter logistic fit model as shown in Equation 4.

T1 sequence (P23458 854-1154): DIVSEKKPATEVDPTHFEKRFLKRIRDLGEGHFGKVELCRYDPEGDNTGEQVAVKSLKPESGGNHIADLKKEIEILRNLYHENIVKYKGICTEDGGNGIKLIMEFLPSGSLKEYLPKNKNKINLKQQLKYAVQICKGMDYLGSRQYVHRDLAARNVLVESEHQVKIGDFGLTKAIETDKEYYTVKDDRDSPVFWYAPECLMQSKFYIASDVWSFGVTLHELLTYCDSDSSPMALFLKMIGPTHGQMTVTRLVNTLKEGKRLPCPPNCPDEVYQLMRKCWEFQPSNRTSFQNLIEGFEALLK
T2 sequence (O60674 812-1132): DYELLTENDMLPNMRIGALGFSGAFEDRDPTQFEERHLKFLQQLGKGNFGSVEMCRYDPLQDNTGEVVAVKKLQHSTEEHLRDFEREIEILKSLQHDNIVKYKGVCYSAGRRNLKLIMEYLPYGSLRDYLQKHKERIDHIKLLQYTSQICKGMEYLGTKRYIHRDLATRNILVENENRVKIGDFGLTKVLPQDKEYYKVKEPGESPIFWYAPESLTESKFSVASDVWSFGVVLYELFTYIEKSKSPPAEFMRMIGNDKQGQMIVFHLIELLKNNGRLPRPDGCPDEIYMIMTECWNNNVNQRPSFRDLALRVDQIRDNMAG

In the case of `CN1CCC[C@H]1CN1CC(n2nnc(Cn3cc(NC(=O)c4cnn5cccnc45)c(-c4cc(OC(F)F)ccc4OC(F)F)n3)n2)C1` (racemic) [Example 46, N-[3-[2,5-bis(difluoromethoxy)phenyl]-1-[[2-[1-[[rac-(2S)-1-methylpyrrolidin-2-yl]methyl]azetidin-3-yl]tetrazol-5-yl]methyl]pyrazol-4-yl]pyrazolo[1,5-a]pyrimidine-3-carboxamide; formic acid], the Ki in assay [1] was 0.49 nM; in assay [2], 0.4 nM. For the same compound, the IC50 in assay [3] (Homo sapiens, BEAS-2B, 1 h) came out at 18 nM.

Take `CN1CCC[C@H]1CN1CC(n2nnc(Cn3cc(NC(=O)c4cnn5cccnc45)c(-c4cc(OC(F)F)ccc4OC(F)F)n3)n2)C1` (racemic) [Example 52, N-[3-[2,5-bis(difluoromethoxy)phenyl]-1-[[2-[1-[[rac-(2R)-1-methylpyrrolidin-2-yl]methyl]azetidin-3-yl]tetrazol-5-yl]methyl]pyrazol-4-yl]pyrazolo[1,5-a]pyrimidine-3-carboxamide]: the Ki in assay [1] was 0.38 nM; in assay [2], 0.39 nM. The IC50 in assay [3] was found to be 19 nM.

`CN1CCC[C@H]1Cn1nnnc1Cn1cc(NC(=O)c2cnn3cccnc23)c(-c2cc(OC(F)F)ccc2OC(F)F)n1` (racemic) [Example 54, N-[3-[2,5-bis(difluoromethoxy)phenyl]-1-[[1-[[rac-(2S)-1-methylpyrrolidin-2-yl]methyl]tetrazol-5-yl]methyl]pyrazol-4-yl]pyrazolo[1,5-a]pyrimidine-3-carboxamide]: the Ki in assay [1] is 0.75 nM; in assay [2], 0.45 nM. In addition, the IC50 in assay [3] (Homo sapiens, BEAS-2B, 1 h) is 51 nM.

Take `CN1CCC(n2nnc(Cn3cc(NC(=O)c4cnn5cccnc45)c(-c4cc(OC(F)F)ccc4OC(F)F)n3)n2)C1` (single isomer, unassigned) [Example 29, N-[3-[2,5-bis(difluoromethoxy)phenyl]-1-[[2-(1-methylpyrrolidin-3-yl)tetrazol-5-yl]methyl]pyrazol-4-yl]pyrazolo[1,5-a]pyrimidine-3-carboxamide]: the values for the Ki in assay [1] and in assay [2] were 0.43 nM and 0.25 nM, respectively. Further, the IC50 in assay [3] (Homo sapiens, BEAS-2B, 1 h) stood at 15 nM.

Consider `CN1CCC(n2nnc(Cn3cc(NC(=O)c4cnn5cccnc45)c(-c4cc(OC(F)F)ccc4OC(F)F)n3)n2)C1` (single isomer, unassigned) [Example 30, N-[3-[2,5-bis(difluoromethoxy)phenyl]-1-[[2-(1-methylpyrrolidin-3-yl)tetrazol-5-yl]methyl]pyrazol-4-yl]pyrazolo[1,5-a]pyrimidine-3-carboxamide], for which the Ki in assay [1] is 0.4 nM; in assay [2], 0.31 nM. Moreover, in assay [3], the IC50 came to 17 nM.

Turning to `CN(C)CCN1CCC(n2nnc(Cn3cc(NC(=O)c4cnn5cccnc45)c(-c4cc(OC(F)F)ccc4OC(F)F)n3)n2)C1` (single isomer, unassigned) [Example 67, N-[3-[2,5-bis(difluoromethoxy)phenyl]-1-[[2-[1-[2-(dimethylamino)ethyl]pyrrolidin-3-yl]tetrazol-5-yl]methyl]pyrazol-4-yl]pyrazolo[1,5-a]pyrimidine-3-carboxamide], the results for the Ki in assay [1] and in assay [2] were 0.53 nM and 0.42 nM, respectively. Further, the IC50 in assay [3] (Homo sapiens, BEAS-2B, 1 h) amounted to 56 nM.

For the compound `CN(C)CCN1CCC(n2nnc(Cn3cc(NC(=O)c4cnn5cccnc45)c(-c4cc(OC(F)F)ccc4OC(F)F)n3)n2)C1` (single isomer, unassigned) [Example 68, N-[3-[2,5-bis(difluoromethoxy)phenyl]-1-[[2-[1-[2-(dimethylamino)ethyl]pyrrolidin-3-yl]tetrazol-5-yl]methyl]pyrazol-4-yl]pyrazolo[1,5-a]pyrimidine-3-carboxamide], the Ki in assay [1] was 0.46 nM; in assay [2] it was 0.43 nM. Further, the IC50 in assay [3] is 41 nM.

Turning to `CN1CCC(N2CC(n3nnc(Cn4cc(NC(=O)c5cnn6cccnc56)c(-c5cc(OC(F)F)ccc5OC(F)F)n4)n3)C2)C1` (single isomer, unassigned) [Example 73, N-[3-[2,5-bis(difluoromethoxy)phenyl]-1-[[2-[1-(1-methylpyrrolidin-3-yl)azetidin-3-yl]tetrazol-5-yl]methyl]pyrazol-4-yl]pyrazolo[1,5-a]pyrimidine-3-carboxamide], the results for the Ki in assay [1] and in assay [2] were 0.64 nM and 0.55 nM, respectively. The IC50 in assay [3] worked out at 43 nM.

Take `CN(C)C1CCC(N2CC(n3nnc(Cn4cc(NC(=O)c5cnn6cccnc56)c(-c5cc(OC(F)F)ccc5OC(F)F)n4)n3)C2)C1` (single isomer, unassigned) [Example 74, N-[3-[2,5-bis(difluoromethoxy)phenyl]-1-[[2-[1-[3-(dimethylamino)cyclopentyl]azetidin-3-yl]tetrazol-5-yl]methyl]pyrazol-4-yl]pyrazolo[1,5-a]pyrimidine-3-carboxamide]: the Ki in assay [1] is 0.55 nM; in assay [2] it was 0.47 nM. The IC50 in assay [3] is 93 nM.

For `CN(C)C1CCC(N2CC(n3nnc(Cn4cc(NC(=O)c5cnn6cccnc56)c(-c5cc(OC(F)F)ccc5OC(F)F)n4)n3)C2)C1` (single isomer, unassigned) [Example 75, N-[3-[2,5-bis(difluoromethoxy)phenyl]-1-[[2-[1-[3-(dimethylamino)cyclopentyl]azetidin-3-yl]tetrazol-5-yl]methyl]pyrazol-4-yl]pyrazolo[1,5-a]pyrimidine-3-carboxamide], the Ki in assay [1] and in assay [2] was 1.1 nM in each case. For the same compound, the IC50 in assay [3] amounted to 200 nM.
